Test [1] has as its target Tyrosyl-DNA phosphodiesterase 2 (Homo sapiens, UniProt O95551). Put plainly: human TDP2 enzyme inhibitors, dose response, biochemical, epi absorbance, IC50 (AID 743297).
Test [2] has as its target Ribosomal protein S6 kinase alpha-3 (Homo sapiens, UniProt P51812). Format: functional.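 Note: measured within a kinome-wide profiling panel.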
Test [3] has as its target Serine/threonine-protein kinase D2 (Homo sapiens, UniProt Q9BZL6). It is filed as functional.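 Note: measured against PRKD2 as one member of a kinome-wide kinase profiling panel.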
For test [4], the target named is MAP kinase-activated protein kinase 5 (Homo sapiens, UniProt Q8IW41). It is filed as functional.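 Note: measured as one member of a kinome panel.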
Test [5] concerns the target Casein kinase I isoform gamma-1 (Homo sapiens, UniProt Q9HCP0). It is filed as functional.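 Note: measured as the CSNK1G1 member of a kinome profiling panel.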
Test [6] has as its target Homeodomain-interacting protein kinase 2 (Homo sapiens, UniProt Q9H2X6). Format: functional.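 Note: measured within a kinome-wide kinase profiling panel, HIPK2 being one panel member.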
Test [7] addresses High affinity nerve growth factor receptor (Homo sapiens, UniProt P04629). Format: functional.
For test [8], the target named is Mitogen-activated protein kinase kinase kinase 20 (Homo sapiens, UniProt Q9NYL2). Format: functional.
In test [9] the target is Mitogen-activated protein kinase kinase kinase kinase 2 (Homo sapiens, UniProt Q12851). Format: functional.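 Note: measured as one member of a kinome-wide kinase panel, with MAP4K2 as the panel entry.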
In test [10] the target is Hepatocyte growth factor receptor (Homo sapiens, UniProt P08581). Format: functional.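 Note: kinase panel profiling across the kinome, with MET as the panel member.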
The target in the next test is Ephrin type-A receptor 2 (Homo sapiens, UniProt P29317). It is filed as functional.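 Note: EPHA2 tested as one member of a kinome-wide kinase panel.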
The target in test [11] is Mitogen-activated protein kinase 1 (Homo sapiens, UniProt P28482). Format: functional.
Test [12] has as its target Serine/threonine-protein kinase Nek4 (Homo sapiens, UniProt P51957). It is filed as functional.
The target of a further test is Aurora kinase B (Homo sapiens, UniProt Q96GD4). It is filed as functional.
Test [13] concerns the target RAC-alpha serine/threonine-protein kinase (Homo sapiens, UniProt P31749). It is filed as functional.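 Note: AKT1 affinity measured as one member of a kinome-wide kinase profiling panel.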
Test [14] deals with Rho-associated protein kinase 1 (Homo sapiens, UniProt Q13464). Format: functional.
Test [15] has as its target Tyrosine-protein kinase Fer (Homo sapiens, UniProt P16591). It is filed as functional.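 Note: FER tested as one member of a kinome panel.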
In test [16] the target is Calcium/calmodulin-dependent protein kinase type 1 (Homo sapiens, UniProt Q14012). It is filed as functional.
The target in test [17] is Homeodomain-interacting protein kinase 4 (Homo sapiens, UniProt Q8NE63). It is filed as functional.
Test [18] addresses Cyclin-dependent kinase 1 (Homo sapiens, UniProt P06493). Format: functional.
The target of test [19] is Serine/threonine-protein kinase DCLK1 (Homo sapiens, UniProt O15075). It is filed as functional.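 Note: affinity for DCLK1 (listed as DCAMKL1) measured as one member of a kinome-wide kinase profiling panel.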
Test [20] deals with Serine/threonine-protein kinase Nek2 (Homo sapiens, UniProt P51955). Format: functional.
The target in test [21] is Polyadenylate-binding protein 1 (Homo sapiens, UniProt P11940). Put plainly: PABP1 MLLE–PAM2 interaction inhibitors, dose response, miRNA deadenylation inhibitor project, biochemical, fluorescence polarization, Cy5-PAM2 peptide, secondary (AID 602260). It is filed as functional. Conditions: read-out: IC50_Mean. A general note: Fluorescence polarisation rises when a labelled molecule tumbles more slowly, as on binding a larger partner.

The target in test [22] is Mitogen-activated protein kinase kinase kinase kinase 4 (Homo sapiens, UniProt O95819). It is filed as functional.
The target in test [23] is Macrophage colony-stimulating factor 1 receptor (Homo sapiens, UniProt P07333). Format: functional.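 Note: value comes from the Navigating the Kinome screening panel, CSF1R member.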

Active and inactive are the calls of the source.

Mitogen-activated protein kinase kinase kinase kinase 4, sequence (O95819 whole entry): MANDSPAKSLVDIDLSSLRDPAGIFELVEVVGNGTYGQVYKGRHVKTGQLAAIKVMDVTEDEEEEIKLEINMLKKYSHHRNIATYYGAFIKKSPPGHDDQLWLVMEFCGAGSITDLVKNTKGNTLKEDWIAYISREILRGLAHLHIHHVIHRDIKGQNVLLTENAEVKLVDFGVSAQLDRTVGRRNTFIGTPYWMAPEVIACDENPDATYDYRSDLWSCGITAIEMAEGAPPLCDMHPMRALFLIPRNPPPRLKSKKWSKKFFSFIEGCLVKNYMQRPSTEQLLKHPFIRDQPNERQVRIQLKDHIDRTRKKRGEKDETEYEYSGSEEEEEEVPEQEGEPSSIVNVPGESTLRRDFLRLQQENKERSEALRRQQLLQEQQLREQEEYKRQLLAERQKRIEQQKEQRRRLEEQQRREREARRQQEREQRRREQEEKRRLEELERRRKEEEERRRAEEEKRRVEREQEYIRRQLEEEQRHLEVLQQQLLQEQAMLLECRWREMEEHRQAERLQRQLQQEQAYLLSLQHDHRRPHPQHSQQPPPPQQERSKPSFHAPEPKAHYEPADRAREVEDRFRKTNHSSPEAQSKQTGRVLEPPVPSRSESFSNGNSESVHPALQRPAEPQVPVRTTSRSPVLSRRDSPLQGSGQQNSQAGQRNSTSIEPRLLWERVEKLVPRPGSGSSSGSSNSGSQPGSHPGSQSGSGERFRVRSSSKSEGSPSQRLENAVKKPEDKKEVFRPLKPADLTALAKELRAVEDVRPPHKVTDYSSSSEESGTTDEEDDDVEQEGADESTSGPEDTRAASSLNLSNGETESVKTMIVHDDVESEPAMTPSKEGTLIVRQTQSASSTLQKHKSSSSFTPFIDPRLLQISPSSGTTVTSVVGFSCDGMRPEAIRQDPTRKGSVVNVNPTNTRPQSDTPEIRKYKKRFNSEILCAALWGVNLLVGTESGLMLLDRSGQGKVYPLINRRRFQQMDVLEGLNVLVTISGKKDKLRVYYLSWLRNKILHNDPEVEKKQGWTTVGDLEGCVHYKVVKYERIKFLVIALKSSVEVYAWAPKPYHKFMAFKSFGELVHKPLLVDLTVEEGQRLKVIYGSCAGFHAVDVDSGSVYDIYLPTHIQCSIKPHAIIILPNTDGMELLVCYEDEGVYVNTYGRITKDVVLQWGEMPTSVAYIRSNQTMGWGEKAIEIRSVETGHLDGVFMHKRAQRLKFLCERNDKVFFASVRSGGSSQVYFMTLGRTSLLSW
Serine/threonine-protein kinase Nek2, sequence (P51955 whole entry): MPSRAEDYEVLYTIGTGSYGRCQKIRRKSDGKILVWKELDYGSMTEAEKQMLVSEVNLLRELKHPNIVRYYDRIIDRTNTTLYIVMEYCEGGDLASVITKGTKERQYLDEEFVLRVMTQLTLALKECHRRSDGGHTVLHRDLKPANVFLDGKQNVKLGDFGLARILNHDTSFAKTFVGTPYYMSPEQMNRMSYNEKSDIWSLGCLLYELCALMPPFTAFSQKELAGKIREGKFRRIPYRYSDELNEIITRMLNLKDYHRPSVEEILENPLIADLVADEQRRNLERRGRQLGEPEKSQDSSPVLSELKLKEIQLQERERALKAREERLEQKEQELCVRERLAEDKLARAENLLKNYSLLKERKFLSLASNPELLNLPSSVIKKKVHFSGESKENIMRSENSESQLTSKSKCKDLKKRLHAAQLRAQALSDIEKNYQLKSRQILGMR
Serine/threonine-protein kinase DCLK1, sequence (O15075 whole entry): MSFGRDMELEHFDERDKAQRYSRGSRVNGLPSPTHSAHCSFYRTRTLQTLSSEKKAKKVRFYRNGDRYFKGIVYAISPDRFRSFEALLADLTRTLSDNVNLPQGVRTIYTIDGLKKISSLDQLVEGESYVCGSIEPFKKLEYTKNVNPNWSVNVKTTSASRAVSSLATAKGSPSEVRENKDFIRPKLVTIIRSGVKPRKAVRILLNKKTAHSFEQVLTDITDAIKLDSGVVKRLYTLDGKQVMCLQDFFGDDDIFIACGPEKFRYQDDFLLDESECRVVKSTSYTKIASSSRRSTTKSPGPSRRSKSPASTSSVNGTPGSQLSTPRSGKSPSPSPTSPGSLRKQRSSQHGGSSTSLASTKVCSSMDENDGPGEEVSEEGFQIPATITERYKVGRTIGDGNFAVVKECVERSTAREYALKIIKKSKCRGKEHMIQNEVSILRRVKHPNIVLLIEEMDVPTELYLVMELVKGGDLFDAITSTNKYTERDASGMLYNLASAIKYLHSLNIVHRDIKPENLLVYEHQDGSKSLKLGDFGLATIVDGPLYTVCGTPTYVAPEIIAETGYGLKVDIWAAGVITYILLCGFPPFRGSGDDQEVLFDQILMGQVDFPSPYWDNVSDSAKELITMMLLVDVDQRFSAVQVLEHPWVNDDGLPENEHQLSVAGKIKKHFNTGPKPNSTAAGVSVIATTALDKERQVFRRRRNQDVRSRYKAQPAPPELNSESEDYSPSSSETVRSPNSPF
Serine/threonine-protein kinase Nek4, sequence (P51957 whole entry): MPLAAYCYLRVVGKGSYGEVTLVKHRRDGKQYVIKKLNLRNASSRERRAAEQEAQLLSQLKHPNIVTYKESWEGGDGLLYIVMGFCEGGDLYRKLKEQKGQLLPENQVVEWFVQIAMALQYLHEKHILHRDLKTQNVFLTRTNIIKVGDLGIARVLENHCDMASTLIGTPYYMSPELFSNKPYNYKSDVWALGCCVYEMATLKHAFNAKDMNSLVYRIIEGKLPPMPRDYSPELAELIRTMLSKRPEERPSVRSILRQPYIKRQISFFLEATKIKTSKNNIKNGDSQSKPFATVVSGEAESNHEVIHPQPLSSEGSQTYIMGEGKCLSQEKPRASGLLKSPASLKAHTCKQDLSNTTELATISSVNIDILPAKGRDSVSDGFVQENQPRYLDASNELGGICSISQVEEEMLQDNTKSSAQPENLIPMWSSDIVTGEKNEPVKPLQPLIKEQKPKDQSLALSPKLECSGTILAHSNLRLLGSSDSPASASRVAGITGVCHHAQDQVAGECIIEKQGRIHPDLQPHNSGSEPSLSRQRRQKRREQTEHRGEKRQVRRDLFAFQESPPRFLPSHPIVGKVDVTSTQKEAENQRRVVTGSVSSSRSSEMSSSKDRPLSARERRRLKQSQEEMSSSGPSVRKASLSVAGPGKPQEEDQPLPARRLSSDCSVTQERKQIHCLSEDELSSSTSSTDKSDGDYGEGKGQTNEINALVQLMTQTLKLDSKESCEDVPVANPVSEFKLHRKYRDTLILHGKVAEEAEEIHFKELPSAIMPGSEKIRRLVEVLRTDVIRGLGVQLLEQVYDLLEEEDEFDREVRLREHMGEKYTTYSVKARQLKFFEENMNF
Serine/threonine-protein kinase D2, sequence (Q9BZL6 whole entry): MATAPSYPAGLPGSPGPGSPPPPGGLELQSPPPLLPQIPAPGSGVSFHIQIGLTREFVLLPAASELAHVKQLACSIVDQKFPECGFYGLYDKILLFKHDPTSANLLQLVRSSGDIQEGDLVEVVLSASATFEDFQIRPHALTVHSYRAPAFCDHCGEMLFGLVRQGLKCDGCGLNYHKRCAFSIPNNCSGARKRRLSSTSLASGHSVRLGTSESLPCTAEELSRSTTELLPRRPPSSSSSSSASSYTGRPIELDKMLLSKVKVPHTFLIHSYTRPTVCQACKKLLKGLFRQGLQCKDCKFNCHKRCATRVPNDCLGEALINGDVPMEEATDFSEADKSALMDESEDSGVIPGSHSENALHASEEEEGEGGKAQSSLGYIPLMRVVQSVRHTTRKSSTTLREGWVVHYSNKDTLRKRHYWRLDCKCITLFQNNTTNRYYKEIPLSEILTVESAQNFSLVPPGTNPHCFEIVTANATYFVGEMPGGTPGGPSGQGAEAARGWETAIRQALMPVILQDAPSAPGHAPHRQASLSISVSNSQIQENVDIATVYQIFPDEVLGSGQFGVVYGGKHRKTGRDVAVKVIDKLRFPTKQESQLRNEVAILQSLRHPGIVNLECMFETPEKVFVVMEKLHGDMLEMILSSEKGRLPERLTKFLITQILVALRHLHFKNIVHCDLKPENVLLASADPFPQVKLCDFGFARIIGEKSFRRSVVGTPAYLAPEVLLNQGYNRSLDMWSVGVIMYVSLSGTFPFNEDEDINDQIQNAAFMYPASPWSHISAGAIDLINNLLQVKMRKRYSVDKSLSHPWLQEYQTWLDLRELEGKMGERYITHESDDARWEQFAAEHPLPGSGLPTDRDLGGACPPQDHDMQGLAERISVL
MAP kinase-activated protein kinase 5, sequence (Q8IW41 whole entry, canonical isoform): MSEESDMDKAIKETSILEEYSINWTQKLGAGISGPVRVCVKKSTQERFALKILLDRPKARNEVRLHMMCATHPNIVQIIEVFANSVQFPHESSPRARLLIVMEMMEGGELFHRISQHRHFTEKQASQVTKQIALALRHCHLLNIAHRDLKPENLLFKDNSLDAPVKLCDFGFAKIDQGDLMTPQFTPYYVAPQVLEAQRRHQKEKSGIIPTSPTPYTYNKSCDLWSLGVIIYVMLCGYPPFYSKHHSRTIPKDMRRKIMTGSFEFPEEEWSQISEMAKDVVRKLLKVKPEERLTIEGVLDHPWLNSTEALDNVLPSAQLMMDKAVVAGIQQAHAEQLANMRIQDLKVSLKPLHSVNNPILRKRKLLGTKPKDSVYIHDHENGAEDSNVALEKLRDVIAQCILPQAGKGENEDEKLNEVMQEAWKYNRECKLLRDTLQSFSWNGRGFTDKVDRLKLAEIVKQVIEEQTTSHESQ
Casein kinase I isoform gamma-1, sequence (Q9HCP0 whole entry, canonical isoform): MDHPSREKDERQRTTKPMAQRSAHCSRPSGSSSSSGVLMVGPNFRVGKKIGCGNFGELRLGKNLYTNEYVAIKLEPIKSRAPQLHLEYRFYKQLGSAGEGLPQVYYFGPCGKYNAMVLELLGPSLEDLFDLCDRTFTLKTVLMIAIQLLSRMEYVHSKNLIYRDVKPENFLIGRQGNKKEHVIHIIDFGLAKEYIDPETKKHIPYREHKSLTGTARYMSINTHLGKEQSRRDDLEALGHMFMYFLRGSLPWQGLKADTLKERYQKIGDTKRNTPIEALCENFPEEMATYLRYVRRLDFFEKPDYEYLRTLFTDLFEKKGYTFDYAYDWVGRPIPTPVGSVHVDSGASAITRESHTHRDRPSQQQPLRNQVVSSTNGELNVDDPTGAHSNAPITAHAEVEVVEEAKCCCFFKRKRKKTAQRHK

In the case of `COc1ccc(C(C[N+](=O)[O-])c2c(C)[nH]n(-c3ccccc3)c2=O)cc1` (stereo not given), the IC50 in test [1] was 6910 nM (active).

A word on the Ki: it is the dissociation constant of the complex between target and ligand, obtained from inhibition or displacement. `Oc1c2ccccc2c2c3c(cccc13)N=N2` [SP-600125]: the Ki in test [2] is 398 nM (active); in [3] it was 158 nM (active); in test [4], > 1580 nM (inactive); in [5], > 6310 nM (inactive); in [6], 200 nM (active); in test [7], 1260 nM (active). For the same compound, the Ki in test [8] is 501 nM (active); in test [9], 50.1 nM (active); in test [10] it was 501 nM (active); on Ephrin type-A receptor 2 it was > 3160 nM (inactive); in [11], 5010 nM (active); in [12], 1000 nM (active). Further, the Ki at Aurora kinase B was 10 nM (active); in [13], > 7940 nM (inactive); in test [14], 2000 nM (active); in [15], 50.1 nM (active); in [16] it was > 1580 nM (inactive); in [17], 2000 nM (active). Further, the inhibition constant Ki was 1000 nM (active) in test [18]; > 10000 nM (inactive) in test [19]; 6310 nM (active) in [20]; 316 nM (active) in test [22]; 126 nM (active) in test [23]. The IC50 in test [21] was > 66000 nM (inactive).

These data come from ChEMBL document CHEMBL1201862, “PubChem BioAssay data set” (2004).
